Source: patent US20250325675A1, “APTAMER, CONJUGATE, COMPOSITION, METHOD FOR PREPARING SAME, AND USE THEREOF” (priority 2022, published 2025)

Tests used:
U118-MG glioma cells = assay: Flow cytometry: entry of conjugates into U118-MG glioma cells in vitro; type: cell-based, human; conditions: 1 h 37°C, yeast tRNA 100 μg/mL, flow cytometry
Method: U118MG cells were seeded into a 96-well plate at 5×10^5 cells/well. Conjugate AP1 prepared above and yeast tRNA were respectively formulated into conjugates solution 1A, 1B, 1C, 1D, 1E, 1F, 1G, 1H, and 1I with DMEM medium, and these conjugate solutions 1A-1I comprised yeast tRNA at a final concentration of 100 μg/mL and respectively comprised conjugate AP1 at final concentrations of 5 nM, 10 nM, 20 nM, 40 nM, 60 nM, 80 nM, 100 nM, 150 nM, 200 nM, and […].
Control conjugate comparative AP10 prepared above and yeast tRNA were respectively formulated into conjugates solution 1A′, 1B′, 1C′, 1D′, 1E′, 1F′, 1G′ 1H′, and 1I′ with DMEM medium, and these conjugate solutions 1A′-1I′ comprised yeast tRNA at a final concentration of 100 μg/mL and respectively comprised control conjugate comparative AP10 at final concentrations of 5 nM, 10 nM, 20 nM, 40 nM, 60 nM, 80 nM, 100 nM, 150 nM, 200 nM, and […].
The aforementioned culture wells containing U118MG cells were respectively added with the conjugate solutions 1A-1I above in an amount of 200 μL/well and designated as test group 1A-test group 1I. The aforementioned culture wells containing U118MG cells were respectively added with the conjugate solution 1A′-1I′ above in an amount of 200 μL/well and designated as control group 1A′-control group 1I′. Another culture well containing U118MG cells was added with 200 μL DMEM medium containing yeast tRNA at a final concentration of 100 μg/mL and designated as blank control group 1J. The 96-well plate containing the above test groups and the blank control group were incubated at 37° C. for 1 h in the dark; after incubation, the supernatant of the reaction mixture of each test group and the blank control group was aspirated, and DPBS buffer (purchased from Thermo Fisher) was added to wash the plate 3 times (100 μL each time). After the washing solution was aspirated, each culture well was added with 100 μL DMEM medium to obtain a cell suspension. The supernatant was removed by centrifugation and then 500 μL DPBS buffer was added to re-suspend the cells. Flow cytometry analysis was performed with flow cytometer (BD Biosciences): 10,000 cells in each test group or the blank control group were analyzed, the fluorescence intensity distribution was determined and the mean fluorescence intensity (MFI, a.u.) was calculated. Furthermore, the mean fluorescence intensity corresponding to each final concentration of conjugates is listed in Table 4 below for comparison, and the relative fluorescence difference R is calculated according to the following equation: R=(MFIAP1−MFICAP10)/MFICAP10.
Therein, MFIAP1 represents mean fluorescence intensity of conjugate AP1 in U118-MG glioma cells, and MFICAP10 represents mean fluorescence intensity of comparative AP10 in U118-MG glioma cells.

SVGp12 normal astrocytes = assay: High content imaging: entry of conjugates into SVGp12 normal astrocytes; type: cell-based, human; conditions: 100 nM, 30 min 37°C
Method: (§1) In this experiment, the entry of conjugate AP1 provided by the present disclosure and comparative conjugate comparative AP10 into different cells was observed by a PerkinElmer High Content Imaging system (Operatta).
(§2) U118MG glioma cells, SVGp12 normal astrocytes, T98G human brain glioma cells, U251 human glioma cells, A549 human non-small cell lung cancer cells, MCF-7 human breast cancer cells, and 293T human kidney epithelial cells were all purchased from the Shanghai Cell Bank of Chinese Academy of Sciences. […] The supernatant was aspirated and DPBS buffer (purchased from Thermo Fisher) was added to wash the plate 2 times (100 μL each time).
(§3) Conjugate AP1 prepared above and yeast tRNA were respectively formulated into conjugate solution 2A with DMEM medium, and the conjugate solution 2A comprised yeast tRNA at a final concentration of 100 μg/mL and conjugate AP1 at a final concentration of 100 nM. […]
(§4) Normalization was performed according to the mean fluorescence intensity of control group 2Y, that is, subtracting the mean fluorescence intensity of control group 2Y from the fluorescence intensity of test group 2X before performing imaging.

U251 human glioma cells = assay: High content imaging: entry of conjugates into U251 cells; type: cell-based; conditions: 100 nM, 30 min 37°C
Method: as §1, §2, §3, §4

[1] = tested on: A549 human non-small cell lung cancer cells; assay: High content imaging: entry of conjugates into A549 cells; type: cell-based; conditions: 100 nM, 30 min 37°C
Method: as §1, §2, §3, §4

[2] = tested on: MCF-7 human breast cancer cells; assay: High content imaging: entry of conjugates into MCF-7 cells; type: cell-based; conditions: 100 nM, 30 min 37°C
Method: as §1, §2, §3, §4

[3] = tested on: 293T human renal epithelial cells; assay: High content imaging: entry of conjugates into 293T cells; type: cell-based; conditions: 100 nM, 30 min 37°C, normal cells
Method: as §1, §2, §3, §4

[4] = tested on: U118MG glioma tumor spheres; assay: High content imaging: entry into U118MG tumor spheres; type: cell-based, human; conditions: 100 nM, imaging without washing
Method: (§5) In this experiment, the entry of conjugate AP1 provided by the present disclosure and comparative conjugate comparative AP10 into U118MG glioma tumor spheres and A549 human non-small cell lung cancer tumor spheres was observed by a PerkinElmer High Content Imaging system (Operatta).
(§6) 80 μL fresh, sterilized and unsolidified 2% agarose was added into the culture wells of a 96-well plate. […] Half of the supernatant was aspirated every 48 h and fresh DMEM medium was added along the wall of the culture wells. After 7 days of culture, the cells were observed under the microscope to confirm that complete cell spheres were obtained, indicating successful tumor sphere cultivation.
(§7) Each culture well was added with AP1 or comparative AP10 according to the method of experimental Example 2, and imaged in a high content imaging system, with the only difference of directly performing imaging after culture without washing and performing imaging according to the measured fluorescence intensity of Cy5.

[5] = tested on: A549 human non-small cell lung cancer tumor spheres; assay: High content imaging: entry into A549 tumor spheres; type: cell-based; conditions: 100 nM, imaging without washing
Method: as §5, §6, §7

[6] = tested on: U118MG subcutaneous tumor; assay: In vivo distribution of conjugates with different modifications in U118MG subcutaneous tumor model mice (Experimental Example 6); design: species or system NOD-SCID mice; conditions: 3 mg/kg tail vein; 4 h to 24 h after administration
Method: U118MG subcutaneous tumor model mice were prepared according to the method described in experimental Example 4.
9 mice were divided into 3 groups (3 mice per group). AP2, AP3 and comparative AP12 solutions were respectively administered to each mouse of each group by tail vein injection. […] The three groups of mice were respectively designated as test group 6A, test group 6B and test group 6C. […] On Day 10 after administration, one mouse of blank control group 6Y and one mouse of test group 6A was respectively euthanized and tumor tissues were taken for fluorescence imaging, and the results are shown in FIG. 5H. In FIGS. 5A-5H, Blank represents blank control group 6Y.

hSTAT3 mRNA = hSTAT3 mRNA inhibition by free uptake in PANC-1 cells, qPCR (Experimental Example 18); type: cell-based; conditions: PANC1 human pancreatic cancer cells, free uptake 2 μM, RNA extracted after 7 days
Method: PANC-1 human pancreatic cancer cells in the logarithmic growth phase were selected and digested (0.25% pancreatic enzyme). The cells were collected, centrifuged to remove the supernatant, and then resuspended in DMEM medium containing 10% FBS to be formulated into cell culture solution with a concentration of 1×10^5 cells/mL. The solutions were mixed thoroughly, seeded into a 24-well plate (with 1 mL/well, i.e. 1×10^5 cells/well).
After respectively culturing the cell solutions in different culture wells of a 24-well plate for 24 h, the supernatant was aspirated and 900 μL DMEM medium containing 10% FBS was added into each well. […]
For each reverse transcription reaction system, 5 μL of the above cDNA-containing solution was taken as the template. By using a SYBR Select Master Mix Kit (purchased from Thermo Fisher Scientific, Cat. No. 4472908), the target gene hSTAT3 and the internal control gene hGAPDH were amplified in a SteponePlus™ Real-Time fluorescence quantitative PCR Thermal Cycler (purchased from Thermo Fisher Scientific) according to the operation method the instruction. […]
For each test group and control group, the above quantitative PCR detection was performed twice.
The fluorescence quantitative data was analyzed by relative quantitative 2^−ΔΔct method, and the calculation method was as follows: […]

CY5-CfCfAGAGUfCfGCfUfGAGAUfUfCfGUfGGCfGCfUfAUfAUf (CCAGAGUCGCUGAGAUUCGUGGCGCUAUAU; listed as RNA, chemistry not fully specified) [comparative AP10, reference compound]
mean fluorescence intensity (MFI) (U118-MG glioma cells; conjugate 5 nM): 25.4 a.u. | mean fluorescence intensity (MFI) (U118-MG glioma cells; conjugate 10 nM): 67.4 a.u. | mean fluorescence intensity (MFI) (U118-MG glioma cells; conjugate 20 nM): 176.4 a.u. | mean fluorescence intensity (MFI) (U118-MG glioma cells; conjugate 40 nM): 443.4 a.u. | mean fluorescence intensity (MFI) (U118-MG glioma cells; conjugate 60 nM): 666.4 a.u. | mean fluorescence intensity (MFI) (U118-MG glioma cells; conjugate 80 nM): 787.4 a.u. | mean fluorescence intensity (MFI) (U118-MG glioma cells; conjugate 100 nM): 1167.4 a.u. | mean fluorescence intensity (MFI) (U118-MG glioma cells; conjugate 150 nM): 1251.4 a.u. | mean fluorescence intensity (MFI) (U118-MG glioma cells; conjugate 200 nM): 1868.4 a.u. | mean fluorescence intensity (MFI) (U118-MG glioma cells; conjugate 500 nM): 4029.4 a.u. | Cy5 fluorescence signal in cells (SVGp12 normal astrocytes): did not show any fluorescence signal | Cy5 fluorescence signal in cells (U251 human glioma cells): neither the tumor cells treated with comparative AP10 nor the 293T human renal epithelial cells showed any fluorescence signal | Cy5 fluorescence signal in cells [1]: neither the tumor cells treated with comparative AP10 nor the 293T human renal epithelial cells showed any fluorescence signal | Cy5 fluorescence signal in cells [2]: neither the tumor cells treated with comparative AP10 nor the 293T human renal epithelial cells showed any fluorescence signal | Cy5 fluorescence signal in cells [3]: nor the 293T human renal epithelial cells showed any fluorescence signal | Cy5 fluorescence signal in tumor spheres [4]: only the edge of the comparative AP10-treated tumor spheres showed significantly weak fluorescence signal | Cy5 fluorescence signal in tumor spheres [5]: only the edge of the comparative AP10-treated tumor spheres showed significantly weak fluorescence signal

CY5-CmsUmsGmGmAmGmUmUmCmAmGmAmCmGmUmGmUmUmGmCmUmCmUmUmCmCmGmAmUmCmsUmsCm [AP3]
fluorescence intensity in vivo / tumor [6]: still show high fluorescence intensity

CY5-UmCmUmAmUmGmGmCmUmGmCmCmGmAmUmCmUmGmGmUmCmUmCmCmAmUmGmUmAmCmGmUm [AP12]
fluorescence intensity in vivo / tumor [6]: still show high fluorescence intensity

B1: conjugate 38: siRNA sense strand 5′ terminal linked to 2′-O-cetyl modified aptamer by four propylene phosphate ester groups; Cy5 on antisense strand; SEQ ID NO: 72/48 (conjugate)
sense: CUGGAGUUCAGACGUGUUGCUCUUCCGAUCUCUUCUAGAAAACUGGAUAACGU
antisense: ACGUUAUCCAGUUUUCUAGCC
modifications: cetyl-modified aptamer, propylene phosphate linkers, Cy5, chemistry not fully specified
inhibition rate against hSTAT3 mRNA (hSTAT3 mRNA): 44%

B2: conjugate 37: siRNA sense strand 3′ terminal linked to AP2 delivery group by Spacer18-GfAfUf; Cy5 on antisense strand; SEQ ID NO: 71/48 (conjugate)
sense: CUAGAAAACUGGAUAACGUGAUCUGGAGUUCAGACGUGUUGCUCUUCCGAUCUC
antisense: ACGUUAUCCAGUUUUCUAGCC
modifications: AP2 delivery group, Spacer18 linker, Cy5; misc_feature 19 is linked to Spacer18 at 3' end
inhibition rate against hSTAT3 mRNA (hSTAT3 mRNA): 33%
